Results reported in PubChem BioAssay (NCI).
Values joined by “and” are separate entries in the source; they are usually repeats but may differ in a detail not shown here. Equal values may be shown once.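 Test compounds were applied to cells in 96-well plates for 48 hours at 5 doses. GI50: concentration for 50% inhibition of growth. TGI: concentration producing complete growth inhibition.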

Key:
Assay in all cases: DTP human tumour cell line panel, 48 h
[1] = system: HCC-2998 colon
[2] = system: KM12 colon
[3] = system: NCI/ADR-RES ovarian
[4] = system: SF-295 CNS
[5] = system: SF-539 CNS
[6] = system: SK-MEL-5 melanoma
[7] = system: SNB-19 CNS
[8] = system: UACC-257 melanoma
[9] = system: UO-31 renal
[10] = system: A498 renal

SMILES	GI50 [1] [µM]	TGI [1] [µM]	GI50 [2] [µM]	TGI [2] [µM]	GI50 [3] [µM]	TGI [3] [µM]	GI50 [4] [µM]	TGI [4]	GI50 [5] [µM]	TGI [5]	GI50 [6] [µM]	TGI [6] [µM]	GI50 [7] [µM]	TGI [7]	GI50 [8] [µM]	TGI [8]	GI50 [9] [µM]	TGI [9]	GI50 [10] [µM]	TGI [10] [µM]
C#CCn1cc(C=C2C(=O)NC(=S)NC2=O)c2cc(Cl)ccc21	1.75	3.39	1.62	3.33	3.09	12.8	1.93	4.12 µM	1.82	3.49 µM	1.81	3.31	1.72	3.16 µM	2.88	8.63 µM	1.7	3.44 µM		
O=c1c2ccccc2c(=O)c2c1sc1c(=O)c3ccc(O)cc3c(=O)c12			2.05	8.24	1.45	6.87	0.178	0.361 µM	0.245	0.661 µM	0.127	0.256	0.342	1.24 µM	0.28	0.736 µM	0.644	2.82 µM	0.574	1.72
N#CC1=C(N)NC(=S)C(C#N)C12Nc1ccccc1S2 (stereo unspecified)			24.8	> 100	14.3	43.7	19.5	47.8 µM			12.8	26.7	25.8	> 100 µM	19.6	35.4 µM	17.6	38.5 µM		
Cc1ccc(-c2cc(C(Cl)Cl)on2)cc1			36.6	> 100	44.9	> 100	60	> 100 µM	> 100	> 100 µM	25.3	> 100	> 100	> 100 µM	67.7	> 100 µM	49.5	> 100 µM	42.7	> 100
C/C(=N\O)[C@H]1CC[C@@]2(C)[C@@H]3CC[C@H]4C(C)(C)/C(=N/O)CC[C@@]45CC35CC[C@]12C (stereo partly specified)			2.84	7.03	2.76	7.93			3.14	6.72 µM	1.51	7.59	8.21	> 16.7 µM	5.53	10.1 µM			2.46	5.87
Nn1nnc2ccccc21		> 100				> 100		> 100 µM				> 100		> 100 µM		> 100 µM		> 100 µM		> 100
Cc1nnc(N=Nc2c(O)[nH]c3ccccc23)[nH]c1=O				> 100		> 100		> 100 µM		> 100 µM				> 100 µM		> 100 µM		> 100 µM		> 100
Cc1ccc(S(=O)c2ccc([N+](=O)[O-])c3nonc23)cc1 (stereo unspecified)	15.6	29.4	15.8	31.1	15.8	48.9			19	39.3 µM	14.8	28.5	14.7	33.9 µM	11.6	23.9 µM	2.4	9.54 µM	11.8	26.4
NCCNc1nc2ccccc2c2c(=O)c3cc(F)cc(Cl)c3sc12	1.75	3.45	1.73	3.24	1.81	3.65	1.73	3.18 µM	1.7	3.08 µM	2.52	6.66			1.85	3.72 µM	1.22	2.49 µM	1.56	3.31
O=C1[C@H]2ON(c3ccccc3)C(c3cccc([N+](=O)[O-])c3)[C@H]2C(=O)N1c1ccc(Cc2ccc(N3C(=O)[C@@H]4ON(c5ccccc5)C(c5cccc([N+](=O)[O-])c5)[C@@H]4C3=O)cc2)cc1 (stereo partly specified)		> 100		> 100				> 100 µM		> 100 µM		> 100		> 100 µM		> 100 µM		> 100 µM		97.5
O=C1Cc2ccccc2CCc2ccccc21		> 100		> 100				> 100 µM		> 100 µM		> 100		> 100 µM		> 100 µM		> 100 µM		> 100
O=C(NOC(=O)c1ccc([N+](=O)[O-])cc1)c1ccc(Cl)cc1		> 100		> 100				> 100 µM		> 100 µM		> 100		> 100 µM		> 100 µM		> 100 µM		> 100
COC(=O)Cc1cc(=O)oc2c1C(=O)CCC2		> 100		> 100				> 100 µM		> 100 µM		> 100		> 100 µM		> 100 µM		> 100 µM		> 100
COc1cc(-c2nn3c(=O)n(-c4ccc(Cl)cc4)c(=O)nc3s2)cc(OC)c1OC	> 50	> 100	> 50	> 100			18.2	> 50 µM and 90.2 µM	32.9	50 µM and 45.6 µM		> 100	37.4	50 µM and 83.8 µM		> 100 µM	> 50	> 100 µM	> 50	> 100
CC[C@H](C)[C@H](NC(=O)N[C@@H](C)c1ccccc1)C(=O)N(C)[C@H](C[C@@H](OC(C)=O)c1nc(C(=O)N[C@@H](Cc2ccccc2)C[C@H](C)C(=O)OC)cs1)C(C)C	28.8	> 100	17.2	84.3	45.8	> 100	25.6	> 100 µM	20.2	56.6 µM	13.1	40.2	28.6	> 100 µM	> 100	> 100 µM	25.5	> 100 µM		
O=C1OC(c2ccc(Cl)c3ccccc23)c2ccccc21 (stereo unspecified)		> 100		> 100				> 100 µM		> 100 µM		> 100		> 100 µM		> 100 µM		> 100 µM		> 100
COc1cc(/C=C2/C(=O)N(C(=O)c3ccccc3O)N=C2C)ccc1O		> 100		> 100		> 100		> 100 µM				> 42.1		> 100 µM		> 100 µM				
C(/C=C/N1CCCC1)=C\c1nc(N2CCCC2)c2ccccc2n1		31.3		> 100				35.4 µM		32.8 µM		33.3		36.3 µM		> 100 µM		29.2 µM		> 100
C=C1C(=O)C23CC1CCC2C12CO[C@@]3(O)[C@@H](O)C1C(C)(C)C=CC2=O (stereo partly specified)	20.7			29.5		60.4	18.1	4.79 µM and 32 µM	4.43	1.8 µM and 13.4 µM		19.1	20.4		2.49	1.33 µM and 7.8 µM	8.37	4.2 µM and 20.4 µM		
Cc1cc(C)c2nccc(NCCCN(C)C)c2c1[N+](=O)[O-]		51.1		> 100				> 100 µM		84.8 µM		26.6		> 100 µM		33.7 µM		42.8 µM		> 100
O=C(O)C(O)c1ccc(F)cc1 (stereo unspecified)				> 100		> 100		> 100 µM						> 100 µM		> 100 µM		> 100 µM		> 100
Cc1ccc(NCCNCC(O)CO)c2c(=O)c3ccccc3sc12 (stereo unspecified)	1.48	3.05	1.74	3.6	1.67	3.75	1.52	3.09 µM	1.67	3.19 µM	1.57	2.93	1.52	3.23 µM	1.87	3.58 µM	1.12	2.48 µM		
CCOc1ccccc1NC(=O)CCC(=O)NN		> 100		> 100				> 100 µM		> 100 µM		> 100		> 100 µM		> 100 µM		> 100 µM		> 100
COC(=O)C1=C(C(=O)OC)C(C(=O)OC)C(C(=O)OC)C(C(=O)OC)(C(=O)OC)C(C(=O)OC)=C1C(=O)OC (stereo unspecified)		31		31.3				39.9 µM		36.7 µM		31.6		33 µM		27 µM		30.7 µM		29.3
N#CC1=C(N)Oc2c(sc3c(Br)cccc23)C1c1ccc(F)cc1 (stereo unspecified)	0.797	10.1	0.361	15.2	0.215	2.63	0.234	0.815 µM			0.371	12.9	0.719	25 µM	13	42.7 µM	0.515	20.1 µM	0.314	16.7
CN1C=C(C(N)=O)C2CC(O)[C@@](NC(=O)CS(N)(=O)=O)(C(=O)O)C2C1 (stereo partly specified)		34		49.8				6.97 µM		4.41 µM		15.7		19.3 µM		27 µM		14.1 µM		4.96
